Like-named read-outs stand apart in the source and are kept apart here.
How the values were obtained:
[1] = system: HSV-1; assay: Topical treatment of mice infected with HSV-1 on the cornea; assay type: in vivo; conditions: for Body weight post-infection: 1 μg three times daily for 5 days
Description: Compounds were administered at 1 μg/eye in 10% DMSO. Two mice were treated with 10% DMSO as a negative control. The corneal surface was swabbed once per day on days 1, 2, 4 and 5 post-infection and titer of virus shed from the epithelium was determined by standard plaque assay. On the fifth day post-infection mice were euthanized and the trigeminal ganglia (TG) and brainstems were dissected. The tissues were disrupted and virus in them quantified by plaque assay. […] Weight of individual mice was recorded daily. […] Saline was a negative control. On the fifth day post-infection mice were euthanized and the trigeminal ganglia (TG) and brainstems were dissected. The tissues were disrupted and virus in them quantified by plaque assay.
Body weight was monitored daily post-infection as a sensitive indicator of overall health (FIG. 12).
Infected mice treated with saline served as a negative control.

[2] = system: TK-deficient mutant of HSV-2 strain 333, ΔTK-; assay: Replication inhibition of thymidine kinase-deficient HSV-2 mutant in Vero cells; assay type: cell-based, herpes simplex virus 2; conditions: 50 μM, 24 h
Description: Cells and Viruses. Vero cells were maintained in Dulbecco's modified Eagle's medium (DMEM) containing 3% newborn calf serum, 3% bovine growth serum, 2 mM L-glutamine and 100 IU/mL penicillin and 0.1 mg/mL streptomycin (P/S). Primary human foreskin fibroblasts (ATCC #CRL2429™) were cultured in DMEM containing 10% FBS, 2 mM L-glutamine plus P/S, and used at passage 3 to 12. HSV-1 #6 and HSV-2 #1 are de-identified clinical isolates from the Saint Louis University Hospital. Stocks were prepared after a single passage in cell culture and were titered by standard plaque assay (Knipe and Spang, 1982). Wild-type HSV-1 and HSV-2 used in FIG. 6 were laboratory strains 17 and 333, respectively. The HSV-1 TK-deficient mutant, ΔTK contains a 361-bp deletion between the BglII-SmaI restriction enzyme sites in the UL23 open reading frame of strain 17 (Korom, et al., 2013). The TK-deficient mutant of HSV-2 strain 333, ΔTK-, contains a 180-bp KpnI-KpnI deletion in the UL23 open reading frame that abrogates TK activity (McDermott, et al, 1984). ΔTK- was the generous gift of Jim Smiley. Virus stocks were grown and titered on Vero cells (Morrison and Knipe, 1996).
Inhibition of acyclovir-resistant HSV-1 and HSV-2 mutants. […] HSV TK-deficient mutants are therefore insensitive to ACV. […] Vero cells were infected with laboratory strains of HSV-1 or HSV-2 and engineered TK-deficient mutants of the same strains. […] Similar patterns were seen when the compounds were used at 5 μM (FIG. 8B), although inhibition by compound #30 at 5 μM was too low to definitively interpret.

[3] = system: Vero cells; assay: MTT mitochondrial toxicity assay in Vero cells; assay type: cell-based; conditions: 24 h; read-out: Vero cell toxicity MTT CC50
[4] = system: Vero cells; assay: CytoTox-Glo cellular lysis assay in Vero cells; assay type: cell-based; conditions: 24 h; read-out: Vero cell toxicity CTG CC50
Description: Quantitative toxicity measurements were conducted for all compounds that suppressed HSV replication by approximately 2 login or more at 5 μM plus a number of compounds with lesser inhibitory activity for comparison. Toxicity was assessed by measuring release of intracellular proteases into the culture medium due to cellular lysis. […] Consistent with the subjective assessments of toxicity, all compounds selected for quantitative toxicity assessment had CC50 values ≥50 μM by both the MTT and cellular lysis assays (Table 1).

[5] = system: HSV-2; assay: HSV-2 viral DNA replication (quantitative PCR, GE) versus infectious virus (PFU) in Vero cells; assay type: cell-based, herpes simplex virus 2; conditions: for Fold suppression GE / Fold suppression PFU: 24 h, relative to DMSO
Description: Quantitative PCR measurement of viral genome levels. Infected cell cultures were collected and virus and cells were pelleted by centrifugation for 30 min at 12,000 rpm. Total DNA was isolated from the pellets using a QIAamp DNA Mini Kit (Qiagen) according to the manufacturer's instructions. DNA concentration of each preparation was measured using a Nanodrop 2000 spectrophotometer. The primers and probe for real-time PCR were designed to amplify a 108 bp segment in the HSV-2 LAT region. […] PCR reactions were set up in 25 μL containing FastStart Universal Probe master mix containing Rox (Roche), 900 nM forward and reverse primers, 250 nM probe, and 5 μL template DNA preparation (˜30-100 ng total DNA). Quantification was performed in triplicate for each DNA preparation using an ABI model 7500 genetic analyzer (Applied Biosystems) with the following cycling parameters: 1 cycle at 50° C. for 2 min, 1 cycle at 95° C. for 10 min, 40 cycles at 95° C. for 15 s, and 60° C. for 1 min. For absolute quantification, 10^3 to 10^8 copies of plasmid pcDNA3.1(+)5′Flag-ICP0 was used to generate a standard curve. Data were analyzed using Sequence Detection System software (ABI), and HSV-2 genome equivalents number per nanogram of total DNA was calculated and used for comparison.
Viral replication was measured 24 hours post-infection by plaque assay, and DNA replication was measured using quantitative PCR against the LAT gene and expressed as genome-equivalents (GE). […] Two inhibitor concentrations were assessed for compounds #30 (60 and 20 μM) and #46 (20 and 10 μM).

[6] = system: HCMV strain AD169; assay: Anti-HCMV CPE inhibition assay (crystal violet) in HFFs; assay type: cell-based, human cytomegalovirus; conditions: 14 days; for EC50: read-out: EC50 against HCMV, CPE inhibition assay
Description: (§1) Anti-HCMV CPE inhibition and cytotoxicity assays. HFFs were infected with HCMV strain AD169 in the presence of serial dilutions of the compounds from 0.0192 to 60 μM. Fourteen days later the monolayers were stained with crystal violet, and retained cell density was quantified using a multiplate autoreader (BioTek). Cytotoxicity was measured the same way, except that the cells were uninfected and neutral red internalization by viable cells was measured.
(§2) Antiviral efficacy against HCMV. The ability of select HSV inhibitors to inhibit replication of another major human herpesvirus pathogen, human cytomegalovirus (HCMV) (65) was tested. This was based on the inhibitors strong suppression of HSV-1 and HSV-2 and the prediction that other members of the herpesvirus family would be sensitive to NTS inhibitors due to their shared DNA replication mechanism. Compounds #41, 46, 49, 55, 56, and 59 and the FDA-approved anti-HCMV drug ganciclovir were evaluated with crystal violet CPE and neutral red toxicity assays in HFFs. HFFs were infected with HCMV in the presence of serial dilutions of the compounds that were most inhibitory for HSVs. After 14 days the monolayers were stained and cell density was determined by OD reading. Compound cytotoxicity for uninfected cells was determined in the same manner except that neutral red uptake by viable cells was measured. […] The TI values for the four NTS inhibitors of HCMV ranged from 4 for compound #41 to 38 for #56. Therefore, NTS inhibitors can suppress HCMV replication in addition to inhibiting the HSVs.

[7] = system: HFFs; assay: Neutral red cytotoxicity assay in uninfected HFFs (14 day, with CPE assay); assay type: cell-based, human; conditions: 14 days
Description: as §1, §2

[8] = 1 μg/eye once daily, compared with DMSO control
[9] = 7.5 μg/eye three times per day, BALB/c mice, versus saline control

| Structure (SMILES) | Inhibition of TK-mutant HSV-2 (in words) [2] | CC50 [3] | CC50 [4] | Fold suppression PFU/GE ([5]; 20 μM) | Fold suppression GE ([5]; 20 μM) | Fold suppression PFU ([5]; 20 μM) | EC50 against HCMV, CPE inhibition assay [6] | EC50 [6] | CC50 [7] | further results |
| --- | --- | --- | --- | --- | --- | --- | --- | --- | --- | --- |
| Nc1nc2c(ncn2COCCO)c(=O)[nH]1 [ACV, Acyclovir, reference compound] | little effect |  |  |  |  |  |  |  |  | Body weight post-infection [1]: maintained their weight through 8 days post-infection; Virus in the TG at 5 days post-infection [1, 8]: significantly reduced; Virus shed in the tear film [1, 8]: transiently reduced; Titers of virus in the TG on day 5 post-infection [1, 9]: reduced to a similar extent |
| CCOc1ccc(-c2c3cc(O)c(=O)cc-3oc3cc(O)c(O)cc23)cc1 [Compound 30] | efficiently inhibited | > 100 µM | > 100 µM | 4.5 | 150 fold | 676 fold |  |  |  | Fold suppression PFU/GE ([5]; 60 μM): 143.7; Fold suppression GE ([5]; 60 μM): 247 fold; Fold suppression PFU ([5]; 60 μM): 35500 fold |
| Cc1cc(C2CCCCC2)n(O)c(=O)c1 [Compound 41, Ciclopirox, reference compound] | efficiently inhibited |  |  |  |  |  | very low μM range |  |  | Fold suppression PFU/GE ([5]; 10 μM): 62.0; Fold suppression GE ([5]; 10 μM): 551 fold; Fold suppression PFU ([5]; 10 μM): 34159 fold; EC50 ([6]; Human betaherpesvirus 5, AD169, 336 h): 2.1 µM; CC50, neutral red [7]: measurable toxicity; Titers of virus in the TG on day 5 post-infection [1, 9]: lower; Titers of virus in the brainstem on day 5 post-infection [1, 9]: lower |
| CC(C)c1ccc(O)c(=O)c(O)c1 [Compound 46, Beta-thujaplicinol] | efficiently inhibited | > 100 µM | > 100 µM | 538.2 | 615 fold | 331000 fold | very low μM range | 1.4 µM | > 60 µM | Fold suppression PFU/GE ([5]; 10 μM): 541.6; Fold suppression GE ([5]; 10 μM): 470 fold; Fold suppression PFU ([5]; 10 μM): 254536 fold; Body weight post-infection [1]: maintained their weight through 8 days post-infection; Virus in the TG at 5 days post-infection [1, 8]: significantly reduced; Virus in the brainstem at 5 days post-infection [1, 8]: significantly reduced; Virus shed in the tear film [1, 8]: transiently reduced |
| CC(C)=CCc1ccc(O)c(=O)cc1C(C)C [Compound 49, Nootkatin] |  | > 100 µM | > 100 µM |  |  |  | very low μM range | 1.7 µM | > 60 µM |  |
| CC(=O)NC(CCc1ccc(Cl)c(Cl)c1)c1cccc(O)c(=O)c1 (stereo not drawn) [Compound 55] |  | > 100 µM | > 100 µM |  |  |  |  | > 60 µM | > 60 µM |  |
| C=C(C)C1CCc2c(c(C)cc(O)c(=O)c2O)C1 (stereo not drawn) [Compound 56, Manicol] |  | > 100 µM | ~100 µM | 314.3 | 420 fold | 132000 fold | very low μM range | 38.4 µM | 38.4 µM | CC50, neutral red [7]: measurable toxicity |
